# Assays:
# [1] = system: MDR-EAEC isolates; test: In vitro antibiotic susceptibility testing of MDR-EAEC isolates; type: cell-based, enteroaggregative Escherichia coli; set-up: key to Antibiotic Susceptibility testing / MIC Values (mg/L), given as class symbol: S – Sensitive; R- Resistant; conditions: for MIC: Escherichia coli
# Description: E. coli ATCC 25922 was used as the quality control strain for antibiotic susceptibility testing.
# [2] = system: MDR-EAEC isolates; test: In vitro time-kill kinetics; type: cell-based, enteroaggregative Escherichia coli; conditions: 10 μg/ml, ca. 1 × 10^7 CFU/ml, CA-MH broth, 37°C
# Description: The in vitro dose- and time-kill kinetics was assessed by co-incubating the log-phase cultures of each of MDR-EAEC isolates (ca. 1 × 10^7 CFU/ml) in cation-adjusted Mueller Hinton (CA-MH) broth with MIC (1 × and 2 × ) of Lfcin (17–30) (Supplementary Information S6). The desired inoculum for each MDR-EAEC strain and Lfcin (17–30) suspended in CA-MH broth was as follows: Group I, 10^7 CFU of MDR-EAEC (50 μl) with 1 × MIC of Lfcin (17–30) (50 μl); Group II, 10^7 CFU of MDR-EAEC (50 μl) with 2 × MIC of Lfcin (17–30) (50 μl); Group III, 10^7 CFU of MDR-EAEC (50 μl) with 10 μg/ml of Meropenem (50 μl); and Group IV, 10^7 CFU of MDR-EAEC (50 μl) in CA-MH broth (50 μl). The MDR-EAEC counts were enumerated ([Miles et al., 1938]) at 0, 30, 60, 90, 120, 150, and 180 min, and 24, 48, and 72 h post co-incubation.
# FIGURE 2 Dose- and time-dependent time-kill assay of MDR-EAEC isolates co-cultured with Lfcin (17–30). MDR-EAEC isolates (n = 3) were co-cultured with 1 × MIC of Lfcin (17–30) (A) and 2 × MIC of Lfcin (17–30) (B) in CA-MH broth at 37°C under static conditions with respective controls of MDR-EAEC isolates (untreated and meropenem-treated). Data expressed as the mean ± standard deviation (log10CFU/ml) of three independent experiments (***P < 0.001). […]
# [3] = system: G. mellonella larvae infected with MDR-EAEC (a cocktail of three strains); test: G. mellonella larval survival; type: in vivo, Galleria mellonella; conditions: larvae infected with LD50 dose (10^6 CFU) of MDR-EAEC, MIC dose 3 h pi, up to 120 h pi, 40 larvae per group
# Description: The final instar of G. mellonella larvae was utilized for performing the in vivo assays ([Morgan et al., 2014]). The larvae (ca. 200–250 mg) inoculated with aliquots of MDR-EAEC suspensions (10 μl) by injection using Hamilton syringe (26 gauge) via the last right pro-leg were incubated at 37°C and the observations were noted. The larvae kept in a sterile environment were provided with ad lib food during the experiment.
# The determined LD50 dose for each MDR-EAEC strain in the larvae was validated and employed further in the in vivo experiments to evaluate the antibacterial efficacy of Lfcin (17–30).
# Galleria mellonella larvae were grouped 40 per group for in vivo antimicrobial testing of Lfcin (17–30) as follows: group I (MDR-EAEC infection control), groups II and III (infection + treatment groups), group IV (PBS control), and group V [Lfcin(17–30) control]. Optimized LD50 dose of MDR-EAEC (a cocktail of three strains) was administered to larvae of groups I to III, while MIC dose of Lfcin (17–30) and Meropenem was administered 3 h post-infection (pi) in groups II and III, respectively. Larval group IV was injected with sterile PBS, whereas MIC dose of Lfcin (17–30) was administered in group V. […]
# [4] = system: G. mellonella larvae; test: LDH cytotoxicity assay of larval haemolymph; type: in vivo, Galleria mellonella; conditions: infected larvae treated 3 h pi
# Description: Galleria mellonella larvae were grouped 40 per group for in vivo antimicrobial testing of Lfcin (17–30) as follows: group I (MDR-EAEC infection control), groups II and III (infection + treatment groups), group IV (PBS control), and group V [Lfcin(17–30) control]. Optimized LD50 dose of MDR-EAEC (a cocktail of three strains) was administered to larvae of groups I to III, while MIC dose of Lfcin (17–30) and Meropenem was administered 3 h post-infection (pi) in groups II and III, respectively. Larval group IV was injected with sterile PBS, whereas MIC dose of Lfcin (17–30) was administered in group V.
# The larvae were then observed for their survival rate, melanization (Supplementary Information S7), MDR-EAEC counts (Supplementary Information S8), hemocyte density (Supplementary Information S9) ([Wand et al., 2013]), lactate dehydrogenase (LDH) cytotoxicity assay (Supplementary Information S10) ([Gibreel and Upton, 2013]), and histopathology (Supplementary Information S11) ([Perdoni et al., 2014]), at an interval of 6 h till 24 h, followed by 24-h interval up to 120 h pi.
# G. mellonella (n=3 larvae per group) were analysed for the production of LDH, as a marker of cell damage, at an interval of 6 h pi for 24 h, followed by 24 h interval till 96 h pi using QuantiChrom LDH cytotoxicity assay kit, according to the manufacturer’s instructions. The positive and negative controls used in this study were […]. The absorbance was read using ELISA plate reader at 500 nm; the haemolymph from untreated larvae served as background control and the cytotoxicity was calculated as, Cytotoxicity (%) = (ODSample - ODControl)/ (ODTotal Lysis - ODControl) x 100, wherein, sample is the control absorbance of treated cell; control is the experimental absorbance of the untreated cell control and total lysis is the absorbance of Triton X-100 treated cells.
Compound,MIC ([1]; KY941937.1 (MDR 2)) [µg/mL],MIC ([1]; KY941938.1 (MDR 3)) [µg/mL],Antibiotic Susceptibility testing ([1]; KY941936.1 (MDR 1)),Antibiotic Susceptibility testing ([1]; KY941937.1 (MDR 2)),Antibiotic Susceptibility testing ([1]; KY941938.1 (MDR 3)),"MIC Values (mg/L), given as class symbol ([1]; KY941936.1 (MDR 1))","MIC Values (mg/L), given as class symbol ([1]; KY941937.1 (MDR 2))","MIC Values (mg/L), given as class symbol ([1]; KY941938.1 (MDR 3))",also measured
"CC1(C)S[C@@H]2[C@H](NC(=O)[C@H](N)c3ccccc3)C(=O)N2[C@H]1C(=O)O [AMP, Ampicillin]",> 240,> 240,R,R,R,,,,MIC ([1]; KY941936.1 (MDR 1)): > 240 µg/mL
"O=C(O)c1cn(C2CC2)c2cc(N3CCNCC3)c(F)cc2c1=O [CIP, Ciprofloxacin]",120,60,S,R,R,,,,
"O=C(N[C@H](CO)[C@H](O)c1ccc([N+](=O)[O-])cc1)C(Cl)Cl [CL, Chloramphenicol]",,,S,S,S,S,S,S,
"CO/N=C(\C(=O)N[C@@H]1C(=O)N2C(C(=O)O)=C(CSc3nc(=O)c(=O)[nH]n3C)CS[C@H]12)c1csc(N)n1 [CTR, Ceftriaxone]",> 240,> 240,S,R,R,S,,,
"CNC(C)C1CCC(N)C(OC2C(N)CC(N)C(OC3OCC(C)(O)C(NC)C3O)C2O)O1 (stereo not drawn) [GEN, Gentamicin]",,,S,S,S,S,S,S,
"C[C@@H](O)[C@H]1C(=O)N2C(C(=O)O)=C(SCCN=CN)C[C@H]12 [IMI, Imipenem]",,,S,S,S,S,S,S,
"Cc1cc(NS(=O)(=O)c2ccc(N)cc2)no1 [SXT, Sulfamethoxazole]",,,R,S,R,,,,
"CN(C)[C@@H]1C(O)=C(C(N)=O)C(=O)[C@@]2(O)C(O)=C3C(=O)c4c(O)cccc4[C@@](C)(O)[C@H]3C[C@@H]12 [TE, Tetracycline]",2,30,R,R,R,,,,MIC ([1]; KY941936.1 (MDR 1)): 60 µg/mL
"C[C@@H](O)[C@H]1C(=O)N2C(C(=O)O)=C(S[C@@H]3CN[C@H](C(=O)N(C)C)C3)[C@H](C)[C@H]12 [meropenem, reference compound]",,,,,,,,,reduction in bacterial counts at 30 min post-coincubation [2]: highly significant (P < 0.001) reduction; time post-coincubation after which complete inhibition [2]: 60 min; survival rate [3]: 85%; LDH cytotoxicity [4]: Almost similar observations
Co-trimoxazole [COT],,,R,R,R,,,,MIC Values ([1]; KY941936.1 (MDR 1)): >240 µg/mL; MIC Values ([1]; KY941937.1 (MDR 2)): >240 µg/mL; MIC Values ([1]; KY941938.1 (MDR 3)): >240 µg/mL
Colistin sulphate,,,S,S,S,S,S,S,

# Source: publication PMC7531601, “Exploiting Lactoferricin (17–30) as a Potential Antimicrobial and Antibiofilm Candidate Against Multi-Drug-Resistant Enteroaggregative Escherichia coli” (Frontiers in Microbiology, 2020)
